Reference: US8025905B2, “Method for reducing allergencity in indoor spaces” (priority 2001, dated 2011)

B1: subtilisin BPN: subtilisin-type protease derived from B. amyloliquefaciens (protein, UniProt P00782 108-382, looked up)
Subtilisin BPN': AQSVPYGVSQIKAPALHSQGYTGSNVKVAVIDSGIDSSHPDLKVAGGASMVPSETNPFQDNNSHGTHVAGTVAALNNSIGVLGVAPSASLYAVKVLGADGSGQYSWIINGIEWAIANNMDVINMSLGGPSGSAALKAAVDKAVASGVVVVAAAGNEGTSGSSSTVGYPGKYPSVIAVGAVDSSNQRASFSSVGPELDVMAPGVSIQSTLPGNKYGAYNGTSMASPHVAGAAALILSKHPNWTNTQVRSSLENTTTKLGDSFYYGKGLINVQAAAQ
B2: subtilisin savinase: subtilisin-type protease derived from Bacillus lentus (protein, UniProt P29600 1-269, looked up)
Subtilisin Savinase: AQSVPWGISRVQAPAAHNRGLTGSGVKVAVLDTGISTHPDLNIRGGASFVPGEPSTQDGNGHGTHVAGTIAALNNSIGVLGVAPSAELYAVKVLGASGSGSVSSIAQGLEWAGNNGMHVANLSLGSPSPSATLEQAVNSATSRGVLVVAASGNSGAGSISYPARYANAMAVGATDQNNNRASFSQYGAGLDIVAPGVNVQSTYPGSTYASLNGTSMATPHVAGAAALVKQKNPSWSNVQIRNHLKNTATSLGSTNLYGSGLVNAEAATR

Tests used:
[1] = ointment containing 5% permethrin applied for 12 hours, then washed off; cited from earlier work
house dust mites = conditions: levels of only 0.1% permethrin; cited from earlier work
allergenic polypeptides = test: Enzymatic degradation of allergens by proteases; format: biochemical
From the text: Any enzyme that will cleave the allergenic polypeptides to destroy the epitopes recognized by the asthmatic's sensitized immune system is suitable, but proteases that are less specific (i.e., hydrolyze peptide bonds between a variety of different amino acid residues, rather than only between specific residues) are preferred. […] Similar non-specific proteases are suitable for use in this invention, as well as Bacillus neutral proteases and the like. Genetically engineered enzymes are within the contemplation of this invention, so long as the resulting enzyme can be shown to destroy allergenic epitopes of the primary allergens, as shown by ELISA tests (see, e.g., U.S. Pat. No. 5,314,991). Suitable assays may be analogous to the tests for active T cell epitopes of Der pI, Der pII, Der f1, and Der fII disclosed in U.S. Pat. No. 5,968,526 (incorporated herein by reference).

Row | Molecule | permethrin absorbed through the skin [1] | kill of house dust mites in carpet (house dust mites) [%] | effectiveness in cleaving allergenic polypeptides (allergenic polypeptides)
1 | CC1(C)C(C=C(Cl)Cl)C1C(=O)OCc1cccc(Oc2ccccc2)c1 (stereo not shown) [Permethrin] | Less than 2% | 100 | –
2 | B1 | – | – | effective
3 | B2 | – | – | effective
